Results reported in patent publication US20240299328A1, “COMPOSITIONS COMPRISING 15-HEPE AND METHODS OF TREATING AND/OR PREVENTING HEMATOLOGIC DISORDERS AND RELATED DISEASES” (Afimmune Limited, priority 2023, published 2024).
Like-named read-outs stand apart in the source and are kept apart here.

What was measured:
UUO mice [1] = type: in vivo
Experimental: UUO Surgery: On day 0 of the study, UUO surgery was performed on mice under pentobarbital sodium anesthesia. The mouse's hair was first shaved and then abdomen cut open to exteriorize the mouse's left ureter. The ureter was ligated 4-0 nylon sutures at two points. The mouse's peritoneum and skin were then closed with sutures, and the mouse transferred to a clean cage until recovered from the anesthesia. Sham operated mice had their left ureter exposed but not ligated. […]
Animals: Seven-week-old female C57BL/6 mice (i.e., animals) were obtained and were housed and fed with a normal diet under controlled conditions. The animals were maintained in a specific-pathogen free (SPF) facility under controlled conditions of temperature (e.g., 23±2° C.), humidity (e.g., 45±10%), lighting (e.g., 12-hour artificial light and dark cycles; light from 8:00 to 20:00) and air exchange. A high pressure was maintained in the experimental room to prevent contamination of the facility. The animals were housed in TPX cages with a maximum of 4 mice per cage. Sterilized Paper-Clean was used for bedding and replaced once a week. Sterilized solid normal diet was provided ad libitum, being placed in a metal lid on the top of the cage. Pure water was also provided ad libitum from a water bottle equipped with a rubber stopper and a sipper tube. Water bottles were replaced once a week, cleaned, and sterilized in an autoclave and reused. Mice were identified by ear punch and each cage was labeled with a specific identification code.
Animal Monitoring and Sacrifice: The viability, clinical signs and behavior for the mice were monitored daily. Individual body weight was measured daily before treatment during the treatment period. […] The animals were sacrificed by exsanguination through direct cardiac puncture under isoflurane anesthesia at Day 14.

UUO mice [2] = assay: UUO study: Sirius red staining, kidney fibrosis area; type: in vivo
Experimental: Histopathological analysis: To visualize collagen deposition, kidney sections were stained using picro-Sirius red solution. For quantification of interstitial fibrosis area, bright field images in the corticomedullary region were captured using a digital camera at 200-fold magnification, and the positive areas in 5 fields/section were measured.

[3] = tested on: α-SMA, TIMP-1, TGF-β and Collagen Type 1 mRNA; assay: UUO study: quantitative RT-PCR of kidney; type: in vivo; settings: UUO mice kidney, normalized to 36B4, Day 14, mean ± SD
Experimental: Quantitative RT-PCR: Total ribonucleic acid (RNA) was extracted from kidney samples using RNAiso. One μg of RNA was reverse-transcribed using a reaction mixture containing […] (mM) of magnesium chloride (MgCl2), 40 U RNase inhibitor, 0.5 mM dNTP, 6.28 µM random hexamer, 5× first strand buffer, 10 mM dithiothreitol and 200 U MMLV-RT in a final volume of 20 μL. The reaction was carried out for 1 hour at 37° C., followed by 5 minutes at 99° C. Real-time PCR was performed using real-time PCR DICE and TB Green™ Premix Ex Taq™ II. To calculate the relative […] (mRNA) expression level, the expression of each gene (e.g., α-SMA, TIMP-1, TGF-β and Collagen Type 1) was normalized to that of reference gene 36B4 (gene symbol: Rplp0). Information regarding the PCR-primer sets and the plate layout are described in Tables 1 and 2.

[4] = tested on: α-SMA, TIMP-1, TGF-β and Collagen Type 1 mRNA; assay: BDL study: quantitative RT-PCR of liver; type: in vivo; settings: BDL mice liver, normalized to 36B4, Day 14, mean ± SD
Experimental: Quantitative RT-PCR: Total ribonucleic acid (RNA) was extracted from liver samples using RNAiso. One μg of RNA was reverse-transcribed using a reaction mixture containing 4.4 mM magnesium chloride (MgCl2), 40 U RNase inhibitor, 0.5 mM dNTP, 6.28 μM random hexamer, 5× first strand buffer, 10 mM dithiothreitol and 200 U MMLV-RT in a final volume of 20 μL. The reaction was carried out for 1 hour at 37° C., followed by 5 minutes at 99° C. Real-time PCR was performed using real-time PCR DICE and TB Green™ Premix Ex Taq™ II. To calculate the relative mRNA expression level, the expression of each gene (α-SMA, TIMP-1, TGF-β and Collagen Type 1) was normalized to that of reference gene 36B4 (gene symbol: Rplp0). Information regarding the PCR-primer sets and the plate layout are described in Tables 8 and 9.

[5] = tested on: protein and lipid biomarkers of NAFLD patients; assay: Phase IIa NAFLD study: lipidomics and proteomics of blood samples; type: in vivo, human
Text: Exploratory analysis: The exploratory analysis included analysis of lipid and metabolic parameters including total cholesterol, triglycerides, very low-density lipoprotein cholesterol (VLDL-C), low density lipoprotein cholesterol (LDL-C), high density lipoprotein cholesterol (HDL-C), non-high-density lipoprotein cholesterol (non-HDL-C), remnant-like particle cholesterol (RLP-C), fasting glucose, insulin, free fatty acids and hemoglobin A1C (HbA1C). Additional exploratory analysis included high throughput lipidomics and proteomics.

[6] = 50 mg/kg PO QD Day 0-13, Day 14, mean ± SD
[7] = 500 mg/kg PO QD Day 0-13, Day 14, mean ± SD

CC/C=C\C[C@H](O)/C=C/C=C\C/C=C\C/C=C\CCCC(=O)OCC [DS102, 15(S)-hydroxy-(5Z,8Z,11Z,13E,17Z)-eicosapentaenoic acid ethyl ester]
Body Weight (UUO mice [1]; [6]): 18.8 ± 0.6 g
Left Kidney Weight (UUO mice [1]; [6]): 469 ± 60 mg
Right Kidney Weight (UUO mice [1]; [6]): 133 ± 10 mg
Body Weight (UUO mice [1]; [7]): 18.7 ± 0.5 g
Left Kidney Weight (UUO mice [1]; [7]): 487 ± 108 mg
Right Kidney Weight (UUO mice [1]; [7]): 136 ± 6 mg
Sirius red-positive area (%)_Median (UUO mice [2]; 50 mg/kg PO QD Day 0-13, Day 14, median): 4.19 ± 3.33%
Sirius red-positive area (%)_Median (UUO mice [2]; 500 mg/kg PO QD Day 0-13, Day 14, median): 3.08 ± 1.16%
Alpha-SMA mRNA expression level ([3]; 50 mg/kg PO QD Day 0-13): 3.74 ± 0.81
Collagen Type 1 mRNA expression level ([3]; 50 mg/kg PO QD Day 0-13): 11.80 ± 1.78
TGF-β mRNA expression level ([3]; 50 mg/kg PO QD Day 0-13): 4.31 ± 0.69
TIMP-1 mRNA expression level ([3]; 50 mg/kg PO QD Day 0-13): 138.30 ± 30.39
Alpha-SMA mRNA expression level ([3]; 500 mg/kg PO QD Day 0-13): 5.54 ± 1.54
Collagen Type 1 mRNA expression level ([3]; 500 mg/kg PO QD Day 0-13): 14.09 ± 2.88
TGF-β mRNA expression level ([3]; 500 mg/kg PO QD Day 0-13): 5.37 ± 0.76
TIMP-1 mRNA expression level ([3]; 500 mg/kg PO QD Day 0-13): 124.80 ± 28.60
Alpha-SMA mRNA expression level ([4]; 50 mg/kg PO QD Day 0-13): 3.21 ± 1.67
Collagen Type 1 mRNA expression level ([4]; 50 mg/kg PO QD Day 0-13): 4.94 ± 2.76
TGF-β mRNA expression level ([4]; 50 mg/kg PO QD Day 0-13): 1.48 ± 0.48
TIMP-1 mRNA expression level ([4]; 50 mg/kg PO QD Day 0-13): 43.82 ± 26.19
Alpha-SMA mRNA expression level ([4]; 250 mg/kg PO QD Day 0-13): 2.66 ± 1.33
Collagen Type 1 mRNA expression level ([4]; 250 mg/kg PO QD Day 0-13): 4.21 ± 1.90
TGF-β mRNA expression level ([4]; 250 mg/kg PO QD Day 0-13): 1.50 ± 0.44
TIMP-1 mRNA expression level ([4]; 250 mg/kg PO QD Day 0-13): 30.65 ± 16.80
expression of multiple circulating chemokines [5]: decreased
expression of multiple proteins associated with increased cardiovascular risk [5]: decreased
expression of multiple tumor necrosis factor receptor superfamily members [5]: decreased
expression of multiple vascular adhesion molecules [5]: decreased
TR (transferrin receptor protein 1) ([5]; 1 g): significant reductions
NASH drug development targets (CCR2/5 signaling, Galectin3, AOC3) ([5]; 2 g): decreased
levels of multiple glycerophospholipid groups ([5]; 2 g): significantly increased
levels of multiple hepatotoxic diglycerides ([5]; 2 g): significantly decreased
inflammatory and pro-fibrotic proteins (Table 19: PAI-1, TIMP-1, DPP4, TLT2, CCL16, MCP-1, SAA4, PI3/Elafin, TR, LILRB1, TNRSF11A) ([5]; 2 g, Bonferroni and Benjamini-Hochberg testing): decreased
number of markers (inflammation, fibrosis, lipid metabolism, apoptosis, chemotaxis) with significantly downregulated expression ([5]; 2 g, panel of greater than 350 protein biomarkers): over 150
